Assay results from US20090325803A1, “CONTROL OF AQUATIC WEEDS USING SELECTED HERBICIDAL COMBINATIONS WITH A SYNTHETIC AUXIN” (priority 2008, published 2009).

Assays:
Type in all cases: in vivo
[1] = system: Eurasian watermilfoil (EWM); assay: Root and shoot dry weights of Eurasian watermilfoil after treatment with triclopyr, 2,4-d, diquat alone and in combination, harvest at 32 d (Example 3); details: single herbicide at 50 ppb, vs untreated controls
Source text: Apical sections (12 to 15 cm in length) of Eurasian watermilfoil (EWM) were planted into small pots (13.5 cm length×3.75 cm diameter) containing Wallace Farm® (topsoil amended with 14-14-14 slow release Osmocote® fertilizer (˜2.5 g Osmocote/kg soil). Approximately 5 to 7 cm of the apical section extended above the sediment at planting, and a sand cap was placed over the potting soil (˜2 cm deep). Plants were then transferred to a 12 L acrylic tanks filled with well water. Plants were allowed to grow to two-thirds the height of tanks (approximately 7 d) before the following treatment was initiated in triple replicate: 1) Untreated controls, 2) triclopyr 50 ppb, 3) 2,4-d 50 ppb, 4) diquat 50 ppb, 5) diquat 50 ppb+triclopyr 50 ppb, 6) diquat 50 ppb+2,4-d 50 ppb. Plants were harvested at 32 d. At harvest, plants were rinsed free of algae, roots and shoots were separated, and placed in paper sacks in a drying oven for 4 d at 70° C. temperature, and dry weights were determined (FIG. 3.1).

[2] = system: Eurasian watermilfoil (EWM); assay: GR50 and Isobole analysis of triclopyr and 2,4-d alone and in combination, above ground biomass 33 days after treatment (Example 4); details: total herbicide concentration, regression of 30-120 ppb treatments, n=3
Source text: Eurasian watermilfoil (EWM) was collected from ponds in Seymour, Ind. Single apical meristems were planted into small pots (13.5 cm length×3.75 cm diameter) containing Wallace Farm® (topsoil amended with 14-14-14 slow release Osmocote® fertilizer (˜2.5 g Osmocote/kg soil). Approximately 5 to 7 cm of the apical section extended above the sediment at planting, and a sand cap was placed over the potting soil (˜2 cm deep). Plants were then transferred to a 12 L acrylic tanks filled with well water. Tanks were maintained in a growth room with 14:10 h photoperiod at 26° C. Plants were allowed to establish growth for 26 days before they were treated.
Pretreatment above ground biomass was harvested the day of the treatment and dry weights were determined. Treatments were replicated three times in a completely randomized design. […]
All above ground biomass was harvested 33 days after treatment. Biomass was dried to constant moisture at 70° C. for 3 d, and dry weights were determined. Data were subjected to regression analysis using Sigma Plot software, and a GR50 was determined (concentration causing a 50% reduction in dry weight) for each treatment. […]

[3] = system: Eurasian watermilfoil (EWM); assay: Root and shoot dry weights of Eurasian watermilfoil after 40 d exposure to triclopyr and fluridone, 12 L tanks (Example 2); details: triclopyr 75 ppb alone
Source text: Apical sections (12 to 15 cm in length) of Eurasian watennilfoil (EWM) were planted into small pots (13.5 cm length×3.75 cm diameter) containing Wallace Farm® topsoil amended with 14-14-14 slow release Osmocote® fertilizer (˜2.5 g Osmocote/kg soil). Approximately 5 to 7 cm of the apical section extended above the sediment at planting, and a sand cap was placed over the potting soil (˜2 cm deep). Plants were then transferred to a 12 L acrylic tanks filled with well water. Plants were allowed to grow for 7 d before the following treatments were initiated in triple replicate: 1) fluridone at 10 ppb, 2) triclopyr at 75 ppb, 3) fluridone (10 ppb) plus triclopyr (75 ppb), 4) untreated controls. Plants were harvested at 40 d. At harvest, plants were rinsed free of algae, roots and shoots were separated, and placed in paper sacks in a drying oven for 4 d at 70° C. temperature, and dry weights were determined (FIG. 2.1).

| SMILES | reduction in root biomass [1] [%] | GR50 (concentration causing a 50% reduction in dry weight) [2] [ppb] | reduction of below ground biomass ([3]; root dry weight) [%] | reduction of above ground biomass ([3]; shoot dry weight) [%] |
| --- | --- | --- | --- | --- |
| O=C(O)COc1ccc(Cl)cc1Cl [2,4-d, (2,4-dichlorophenoxy) acetic acid] | 66 | 162.6 | – | – |
| c1cc[n+]2c(c1)-c1cccc[n+]1CC2 [diquat, 1,1′-ethylene 2,2′-dipyridylium dibromide] | 86 | – | – | – |
| O=C(O)COc1nc(Cl)c(Cl)cc1Cl [triclopyr, 3,5,6-trichloro-2-pyridyloxyacetic acid] | 90 | 63.0 | 74 | 96 |
